Measurements from US20060281771A1, “SYNERGISTIC MODULATION OF FLT3 KINASE USING AMINOQUINOLINE AND AMINOQUINAZOLINE KINASE MODULATORS” (priority 2005, published 2006).
“Also recorded” adds a separate entry of the source.

Legend:
[1] = Body weight and overt toxicity in tumor-bearing mice; conditions: alone or in combination
Method: Female athymic nude mice weighing no less than 20-21 grams were inoculated subcutaneously in the left inguinal region of the thigh with 5×10^6 tumor cells in a delivery volume of 0.2 mL. For regression studies, the tumors were allowed to grow to a pre-determined size prior to initiation of dosing. […] Mice were dosed orally by gavage with vehicle (control group) or compound at various doses twice-daily (b.i.d.) during the week and once-daily (q.d.) on weekends. […] If tumors in the control mice reached ˜10% of body weight (˜2.0 grams), the study was to be terminated. […] During the study, tumor growth was measured three times-a-week (M, W, F) using electronic Vernier calipers. Tumor volume (mm^3) was calculated using the formula […], where L=length (mm) and W=width (shortest distance in mm) of the tumor. […]
Female athymic nude mice weighing no less than 20-21 grams were inoculated subcutaneously in the left inguinal region of the thigh with 5×10^6 tumor cells in a delivery volume of 0.2 mL. For regression studies, the tumors were allowed to grow to a pre-determined size prior to initiation of dosing. […] During the study, tumor growth was measured three times-a-week (M, W, F) using electronic Vernier calipers. Tumor volume (mm^3) was calculated using the formula […], where L=length (mm) and W=width (shortest distance in mm) of the tumor. […]

[2] = cited from earlier work
[3] = tested on: MV4-11 AML cells; experiment: Cell proliferation assay and combination index analysis, MV4-11; assay type: cell-based, human; conditions: single agent; depending on the cell type
From the text: (§1) All data points are an average of triplicate samples.
as §1

[4] = tested on: MV4-11 tumor xenografts; experiment: MV4-11 human tumor xenograft regression model; assay type: in vivo, nude mice; conditions: Tipifarnib alone 50 mg/kg po
Method: Female athymic nude mice (CD-1, nu/nu, 9-10 weeks old) were obtained from Charles River Laboratories (Wilmington, Mass.) and were maintained according to NIH standards. All mice were group housed (5 mice/cage) under clean-room conditions in sterile micro-isolator cages on a 12-hour light/dark cycle in a room maintained at 21-22° C. and 40-50% humidity. Mice were fed irradiated standard rodent diet and water ad libitum. All animals were housed in a Laboratory Animal Medicine facility that is fully accredited by the American Association for Assessment and Accreditation of Laboratory Animal Care (AAALAC). […]
The time course of the inhibitory effects of FLT3 inhibitor compounds on the growth of MV4-11 tumors is illustrated in FIG. 1. […] Percent inhibition (% I) of tumor growth was calculated versus tumor growth in the vehicle-treated Control group on the last study day.
Statistical significance versus Control was determined by Analysis of Variance (ANOVA) followed by Dunnett's t-test: * p<0.05; ** p<0.01.
(See FIG. 2). […] Percent Inhibition was calculated versus the mean tumor weight in the vehicle-treated control group. Statistical significance versus Control was determined by ANOVA followed by Dunnett's t-test: ** p<0.01. […]

[5] = multicenter Phase II trial, relapsed AML
[6] = patients with relapsed and refractory AML

## Cn1cncc1C(N)(c1ccc(Cl)cc1)c1ccc2c(c1)c(-c1cccc(Cl)c1)cc(=O)n2C (single isomer, unassigned; (+)) [Tipifarnib, (+)-6-[amino(4-chlorophenyl)(1-methyl-1H-imidazol-5-yl)methyl]-4-(3-chlorophenyl)-1-methyl-2(1H)-quinolinone]
[1]; 9-day treatment
  overt toxicity: No overt toxicity
[1]; 16-day treatment
  overt toxicity: No overt toxicity
[2]; [5]
  >50% reduction in bone marrow blasts: 31 of 50
  complete responses (bone marrow blasts <5%): 17 of 50
[2]; [6]
  patients achieving complete remission: 2 patients
  response rate: ~30%
[3]
  potency range: high nanomolar to high picomolar range
[4]; 9 days, Day 9
  effect on tumor volume vs control: not significantly reduced; also recorded: ineffective
[4]; 16 days
  effect on tumor growth: ineffective
